According to US9382204B2, “Inhibitors targeting the DNA-binding domain of human STAT3 for treatment of metastatic cancers” (Indiana University Research and Technology Corporation, priority 2013, dated 2016):

System: A549 cells
Assay: Mouse xenograft model of A549 cells
Format: in vivo, NOD/SCID mice
Procedure: For efficacy study. 5×10^6 A549 cells were injected subcutaneously in the flanks of 12 NOD/SCID mice. When the tumor volume reached about 50.0 mm^3, the mice were randomized into two different groups (6/group) with one treated by formulation vehicle control (Pharmatek Laboratories, San Diego, Calif.) and the other by A18 at 200 mg/kg with oral dosing every two days for four weeks. One mouse in each group died during the study and was eliminated. Tumor volume and body weight were measured twice a week. On the 35th day after implant, mice were euthanized and the tumor tissues were harvested and weighed. Necropsy was also performed to determine the changes in heart, lungs, kidneys, liver and spleen. To evaluate the histological alternation, metastasis in the lung and the expression of STAT3 and its downstream proteins, paraffin-embedded tissue sections were stained with ematoxylin and eosin (H&E) and/or used for immunohistochemistry analysis.

[1] = 200 mg/kg oral, every two days for four weeks

## O=C1C(=Cc2ccc(Cl)cc2)C=C(c2ccccc2)N1c1ccc(O)cc1 [Compound A18]
[1]
  final tumor weight compared to control-treated group: significantly less
  mouse body weight: no significant effect
  weight of other organs: no difference
  xenograft tumor growth compared to vehicle control: significantly reduced
H&E staining and histology
  lung metastasis: None of the A18-treated mice has any signs of lung metastasis
immunohistochemistry
  expression of survivin and VEGF in xenograft tumors: reduced
